Columns and labels:
[1] = molecular target: human NLRP3 (Homo sapiens, UniProt Q96P20); test: Human Whole Blood (hWB) NLRP3 Assay (LPS/ATP, IL-1β); assay type: cell-based; set-up: host or cells: human whole blood from healthy volunteers (A3)
Outline: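 Heparinized healthy-donor human whole blood primed with LPS 1 μg/ml for 4.5 h, with compound added 30 min before ATP activation, or compound added 30 min before 5 h LPS priming. ATP stimulation for 30 min at 37 °C, then plasma IL-1β measured by MSD immunoassay to give IC50.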

[2] = molecular target: T1, mouse NLRP3 (Mus musculus, UniProt Q8R4B8); test: Mouse Whole Blood (mWB) NLRP3 Assay (LPS/ATP, IL-1b); assay type: cell-based
T1 construct: from tissue; host or cells: whole blood of female CD1 mice
T1 sequence (Q8R4B8 whole entry): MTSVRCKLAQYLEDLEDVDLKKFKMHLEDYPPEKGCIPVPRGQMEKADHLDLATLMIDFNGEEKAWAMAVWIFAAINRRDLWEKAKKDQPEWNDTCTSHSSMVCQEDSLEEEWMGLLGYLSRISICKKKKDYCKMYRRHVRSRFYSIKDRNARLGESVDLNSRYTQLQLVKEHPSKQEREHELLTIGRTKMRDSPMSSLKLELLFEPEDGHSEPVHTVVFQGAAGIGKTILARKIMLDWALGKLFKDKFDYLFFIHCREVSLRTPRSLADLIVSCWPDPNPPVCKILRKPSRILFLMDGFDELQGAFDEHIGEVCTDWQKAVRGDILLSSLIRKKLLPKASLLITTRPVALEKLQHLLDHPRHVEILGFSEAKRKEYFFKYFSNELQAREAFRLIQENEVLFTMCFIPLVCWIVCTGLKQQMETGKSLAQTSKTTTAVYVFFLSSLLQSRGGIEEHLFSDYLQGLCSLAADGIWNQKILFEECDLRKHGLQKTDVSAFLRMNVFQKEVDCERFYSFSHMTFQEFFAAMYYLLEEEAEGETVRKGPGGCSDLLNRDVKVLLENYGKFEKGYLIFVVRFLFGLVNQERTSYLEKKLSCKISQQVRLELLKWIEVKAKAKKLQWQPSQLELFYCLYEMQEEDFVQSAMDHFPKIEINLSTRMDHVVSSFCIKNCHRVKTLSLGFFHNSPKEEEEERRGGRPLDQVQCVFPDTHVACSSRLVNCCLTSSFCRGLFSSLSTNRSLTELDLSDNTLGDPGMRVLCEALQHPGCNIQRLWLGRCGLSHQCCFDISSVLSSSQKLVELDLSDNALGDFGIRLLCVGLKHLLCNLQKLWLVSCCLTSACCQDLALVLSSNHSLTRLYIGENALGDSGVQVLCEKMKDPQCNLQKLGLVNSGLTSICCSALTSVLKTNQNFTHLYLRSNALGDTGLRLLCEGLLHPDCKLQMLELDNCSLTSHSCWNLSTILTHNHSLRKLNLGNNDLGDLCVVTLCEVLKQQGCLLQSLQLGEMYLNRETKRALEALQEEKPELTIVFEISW
Procedure: Reagents: The following reagents were used: blood collection tubes (Heparin); U-bottom 96-well tissue culture (Falcon 353077); HBSS for LPS, ATP and compound dilutions (Gibco 24020-117); and LPS, E. coli serotype O26:B6 (Sigma L-2654).
Mouse IL-1b MSD assay: Blood was drawn from female CD1 mice (9 to 10 weeks) by cardiac puncture. Blood was plated (135 μL) per well in 96-well U-bottom plates. 7.5 μL of 20×LPS (20 μg/mL, final concentration of 1 μg/mL) was added and mixed by gentle pipetting, and the mixture was incubated in a TC incubator for five hours. 7.5 μL of 20× compound or vehicle per well was added and mixed by gentle pipetting. Compounds were diluted 1/50 in HBSS to prepare a 20× dilution curve in 2% DMSO. The mixture was incubated for 30 minutes in a TC incubator with shaking (450 rpm). 5 μl of 31×ATP (155 mM, final concentration of 5 mM) was added and mixed by gentle pipetting. The mixture was incubated in a TC incubator for 30 minutes with shaking (450 rpm). The plate was centrifuged for 10 minutes at 800×g and ˜70 μL of plasma was removed. Plasma was frozen if required. Mouse IL-1b was analyzed with IL-1b MSD assay (K152TUK).
Compounds were added 30 minutes before priming the cells with LPS when TNFα was required to be quantified in the cytokine panel to confirm selectivity.
mWB NLRP3 IC50 assay results, as a measurement of whole blood potency, are provided in Table B. “A” activity=<1 uM; “B” activity=1-2 uM; “C” activity=>2-3 uM; “D” activity=>3 uM.

human NLRP3, sequence (Q96P20 whole entry): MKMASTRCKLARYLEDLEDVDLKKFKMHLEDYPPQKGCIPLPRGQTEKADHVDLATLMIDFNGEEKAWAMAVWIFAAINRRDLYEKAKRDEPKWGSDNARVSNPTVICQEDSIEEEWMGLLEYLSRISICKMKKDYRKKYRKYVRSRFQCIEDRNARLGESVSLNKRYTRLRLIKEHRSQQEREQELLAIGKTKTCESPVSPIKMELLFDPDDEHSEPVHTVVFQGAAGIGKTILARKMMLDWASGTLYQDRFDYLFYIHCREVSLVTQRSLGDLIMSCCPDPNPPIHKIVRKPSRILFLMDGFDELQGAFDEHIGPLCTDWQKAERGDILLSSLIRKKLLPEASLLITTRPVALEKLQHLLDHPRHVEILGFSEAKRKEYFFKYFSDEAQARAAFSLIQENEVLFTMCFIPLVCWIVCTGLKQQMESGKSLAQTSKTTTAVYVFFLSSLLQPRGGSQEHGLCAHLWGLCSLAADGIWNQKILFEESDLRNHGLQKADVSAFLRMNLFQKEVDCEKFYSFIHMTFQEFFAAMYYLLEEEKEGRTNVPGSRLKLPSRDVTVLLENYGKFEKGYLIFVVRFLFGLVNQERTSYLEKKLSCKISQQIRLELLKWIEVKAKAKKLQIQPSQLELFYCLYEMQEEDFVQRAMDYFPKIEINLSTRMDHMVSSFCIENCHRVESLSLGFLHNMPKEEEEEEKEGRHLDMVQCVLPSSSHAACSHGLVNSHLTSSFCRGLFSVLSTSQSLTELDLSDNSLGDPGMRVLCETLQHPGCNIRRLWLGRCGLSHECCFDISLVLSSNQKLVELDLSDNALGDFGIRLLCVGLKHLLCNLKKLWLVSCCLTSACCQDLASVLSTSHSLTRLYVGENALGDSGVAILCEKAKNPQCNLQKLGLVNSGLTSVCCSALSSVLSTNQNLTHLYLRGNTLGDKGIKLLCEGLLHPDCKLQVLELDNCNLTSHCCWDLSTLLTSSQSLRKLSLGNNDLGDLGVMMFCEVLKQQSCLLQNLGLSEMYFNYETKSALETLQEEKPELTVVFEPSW

IC50 ([1]; Table B, activity class) [nM] | IC50 ([1]; Table C) [nM] | IC50 ([2]; Table B, activity class) [nM] | IC50 ([2]; Table C) [nM] | SMILES
< 1000 | 150 | < 1000 | 40 | C[C@@H]1CCN(c2nnn[nH]2)C[C@H](NC(=O)N(C)c2ccc(Cl)cc2)C1 (single isomer, unassigned) [4A*]
< 1000 | 300 | < 1000 | 95 | C[C@@H]1CCN(c2nnn[nH]2)C[C@H](NC(=O)N(C)c2ccc(OC(F)(F)F)cc2)C1 (single isomer, unassigned) [10A*]
< 1000 | 58 | < 1000 | 26 | C[C@@H]1CCN(c2nnn[nH]2)C[C@H](NC(=O)N(C)c2ccc(OC(F)F)cc2)C1 (single isomer, unassigned) [11A*]

— US20260008768A1, “UREA DERIVATIVES FOR INHIBITING NLRP3 AND USES THEREOF” (VENTUS THERAPEUTICS U.S., INC., priority 2023, published 2026)
